These are literature values, as cited in patent US8329914B2, “Cyclic benzimidazole derivatives useful as anti-diabetic agents” (Merck Sharp & Dohme Corp, priority 2008, dated 2012).

For the series, the system named is ob/ob and db/db mice. The following applies: following 8 weeks of administration; cited from earlier work.

As to `NC(=O)c1ncn([C@@H]2O[C@H](CO)[C@@H](O)[C@H]2O)c1N` [AICAR], the blood glucose reduction was 35%.
